The text below walks through data of PubChem BioAssay AID624129 (Sanford-Burnham Center for Chemical Genomics, 2012).

Calls of active or inactive are those of the source. No rule for the calls is given here. Where only a bound is given, the exact number is not on record here.

Test in all cases: CXCR6 receptor antagonists, dose response, cell-based, beta-arrestin, DiscoveRx, APJ panel, uHTS hits (AID 624129)
For test [1], the target named is Apelin receptor (Homo sapiens) (UniProt P35414). The settings on record: CXCR6 beta-arrestin (DiscoveRx) antagonist cell assay, APJ.
In test [2] the target is C-X-C chemokine receptor type 6 (Homo sapiens) (UniProt O00574). The settings on record: CXCR6 beta-arrestin (DiscoveRx) antagonist cell assay; for inhibition: CXCR6, run 1, dose range 2, at 80 µM (top of the series).
In test [3] the target is C-C chemokine receptor type 6 (Homo sapiens) (UniProt P51684). The settings on record: CXCR6 beta-arrestin (DiscoveRx) antagonist cell assay.
In test [4] the target is Beta-galactosidase (Escherichia coli) (UniProt Q8VNN2). The following applies: CXCR6 beta-arrestin (DiscoveRx) antagonist cell assay, b-galactosidase.
The mark [5] stands for this setting: dose range 1, mean IC50 across replicates.
The mark [6] stands for this setting: CXCR6, dose range 1, mean IC50 across replicates.
The mark [7] stands for this setting: CCR6, dose range 1, mean IC50 across replicates.

Chain of C-X-C chemokine receptor type 6 (Homo sapiens) (O00574 whole entry, looked up): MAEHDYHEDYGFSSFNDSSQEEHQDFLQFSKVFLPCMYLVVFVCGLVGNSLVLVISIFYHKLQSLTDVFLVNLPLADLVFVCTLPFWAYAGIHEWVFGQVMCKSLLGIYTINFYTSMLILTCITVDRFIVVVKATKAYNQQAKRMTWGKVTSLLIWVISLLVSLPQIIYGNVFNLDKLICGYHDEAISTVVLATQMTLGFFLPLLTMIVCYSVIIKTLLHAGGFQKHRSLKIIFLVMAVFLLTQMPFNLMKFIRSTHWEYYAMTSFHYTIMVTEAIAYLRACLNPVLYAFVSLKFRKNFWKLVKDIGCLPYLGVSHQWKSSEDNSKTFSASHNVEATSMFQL
Chain of Beta-galactosidase (Escherichia coli) (Q8VNN2 whole entry, looked up): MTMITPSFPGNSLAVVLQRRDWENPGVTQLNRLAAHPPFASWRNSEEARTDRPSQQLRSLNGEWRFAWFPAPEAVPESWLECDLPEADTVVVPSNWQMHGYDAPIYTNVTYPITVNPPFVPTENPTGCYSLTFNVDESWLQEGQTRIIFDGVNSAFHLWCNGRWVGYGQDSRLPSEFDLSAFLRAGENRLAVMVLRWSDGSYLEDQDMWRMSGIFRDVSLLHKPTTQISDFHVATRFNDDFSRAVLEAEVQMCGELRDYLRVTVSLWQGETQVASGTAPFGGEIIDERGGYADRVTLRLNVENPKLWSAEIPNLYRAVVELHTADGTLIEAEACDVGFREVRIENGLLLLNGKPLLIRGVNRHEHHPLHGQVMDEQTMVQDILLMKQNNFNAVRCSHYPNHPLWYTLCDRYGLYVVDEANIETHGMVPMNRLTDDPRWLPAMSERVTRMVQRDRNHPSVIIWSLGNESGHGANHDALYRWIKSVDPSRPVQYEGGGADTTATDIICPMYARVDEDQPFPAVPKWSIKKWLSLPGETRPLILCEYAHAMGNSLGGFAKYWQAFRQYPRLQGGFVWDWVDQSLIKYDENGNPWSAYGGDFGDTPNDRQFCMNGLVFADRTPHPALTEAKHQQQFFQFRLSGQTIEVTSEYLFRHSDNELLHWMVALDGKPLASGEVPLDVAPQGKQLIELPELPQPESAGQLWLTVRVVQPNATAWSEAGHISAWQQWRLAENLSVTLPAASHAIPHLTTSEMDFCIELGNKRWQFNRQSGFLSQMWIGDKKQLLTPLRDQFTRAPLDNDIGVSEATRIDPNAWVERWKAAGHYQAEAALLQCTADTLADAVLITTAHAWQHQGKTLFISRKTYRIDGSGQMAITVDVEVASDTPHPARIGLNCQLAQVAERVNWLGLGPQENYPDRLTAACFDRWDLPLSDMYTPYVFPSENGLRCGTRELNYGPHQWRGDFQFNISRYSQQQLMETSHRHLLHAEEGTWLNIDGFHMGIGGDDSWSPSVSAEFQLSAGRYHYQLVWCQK

Take `CC1(C)CC(=O)C(C=Nc2ccc(C(=O)c3ccccc3)cc2N=CC2=C(O)CC(C)(C)CC2=O)=C(O)C1`: the IC50 (usually the concentration needed to halve the response being measured) in test [1] (dose range 1) was “inactive”; in test [2] (CXCR6, dose range 1) it was “inactive”. In addition, the IC50 in test [1] (setting [5]) was 60 µM; in test [1] (run 2, dose range 1), 62.7 µM; in test [1] (run 3, dose range 1), 75.9 µM; in test [2] (setting [6]), 11.2 µM; in test [2] (CXCR6, run 1, dose range 2) it was 0.963 µM; in test [2] (CXCR6, run 2, dose range 1) it was 36.3 µM. The IC50 was 2.7 µM in test [2] (CXCR6, run 2, dose range 2); 3.9 µM in test [3] (CCR6, dose range 1); 5.09 µM in test [3] (setting [7]); 6.27 µM in test [3] (CCR6, run 2, dose range 1); > 80 µM (inactive) in test [4] (dose range 1); greater than 80 µM in test [4] (setting [5]).

With `O=[N+]([O-])c1c(Nc2ccccc2O)cc(Cl)c2nonc12`, the IC50 in test [1] (dose range 1) was 20 µM; in test [1] (setting [5]) it was 23.2 µM; in test [1] (run 2, dose range 1), 24.4 µM; in test [1] (run 3, dose range 1) it was 25.2 µM; in test [2] (setting [6]), 13 µM; in test [2] (CXCR6, run 2, dose range 1), 9.03 µM. Also, the IC50 is 11.8 µM in test [3] (CCR6, dose range 1); 12.6 µM in test [3] (setting [7]); 13.4 µM in test [3] (CCR6, run 2, dose range 1); > 80 µM (inactive) in test [4] (dose range 1); greater than 80 µM in test [4] (setting [5]). The IC50 result in test [2] (CXCR6, dose range 1) is “inactive”. Also, the inhibition (as a rule, the change of the read-out against control, counted positive when it falls) in test [2] worked out at 123%.

For the compound `N#Cc1c(C#N)c(SSc2c(C#N)c(C#N)c(N)n2-c2ccccc2)n(-c2ccccc2)c1N`, the IC50 in test [1] (setting [5]) is 2.15 µM; in test [1] (run 2, dose range 1), greater than 80 µM; in test [1] (run 3, dose range 1), 2.15 µM; in test [2] (setting [6]), 10.7 µM; in test [2] (CXCR6, run 1, dose range 2), 10.6 µM; in test [2] (CXCR6, run 2, dose range 1) it was greater than 80 µM. In addition, the IC50 was 10.9 µM in test [2] (CXCR6, run 2, dose range 2); > 80 µM (inactive) in test [3] (CCR6, dose range 1); greater than 80 µM in test [3] (setting [7]); greater than 80 µM in test [3] (CCR6, run 2, dose range 1); > 80 µM (inactive) in test [4] (dose range 1); greater than 80 µM in test [4] (setting [5]).

Take `FC(F)(F)c1cnc(NNC(=S)Nc2ccccc2Cl)c(Cl)c1`: the IC50 is greater than 80 µM in test [1] (setting [5]); greater than 80 µM in test [1] (run 2, dose range 1); greater than 80 µM in test [1] (run 3, dose range 1); > 80 µM (inactive) in test [2] (CXCR6, dose range 1); greater than 80 µM in test [2] (setting [6]); greater than 80 µM in test [2] (CXCR6, run 2, dose range 1). Besides, the IC50 is greater than 80 µM in test [3] (setting [7]); greater than 80 µM in test [3] (CCR6, run 2, dose range 1); > 80 µM (inactive) in test [4] (dose range 1); greater than 80 µM in test [4] (setting [5]). Further, in test [2], the inhibition turned out to be 2.4%.

In the case of `Cc1nnc(Sc2cc(NCCCO)c([N+](=O)[O-])c3nonc23)s1`, the IC50 in test [1] (dose range 1) is 12.9 µM; in test [1] (setting [5]) it was 11.6 µM; in test [1] (run 2, dose range 1), 11.3 µM; in test [1] (run 3, dose range 1), 10.6 µM; in test [2] (CXCR6, dose range 1), 7.25 µM; in test [2] (setting [6]), 7.84 µM. In addition, the IC50 in test [2] (CXCR6, run 1, dose range 2) was 8.37 µM; in test [2] (CXCR6, run 2, dose range 1), 9.54 µM; in test [2] (CXCR6, run 2, dose range 2), 6.2 µM; in test [3] (CCR6, dose range 1), 8.94 µM; in test [3] (setting [7]) it was 8.16 µM; in test [3] (CCR6, run 2, dose range 1) it was 7.38 µM. Moreover, the IC50 in test [4] (dose range 1) is > 80 µM (inactive); in test [4] (setting [5]) it was greater than 80 µM.

Regarding `CCn1c(Cl)c(C=O)s/c1=N\S(=O)(=O)c1ccccc1`, the IC50 is 6.85 µM in test [1] (dose range 1); 5.99 µM in test [1] (setting [5]); 5.55 µM in test [1] (run 2, dose range 1); 5.57 µM in test [1] (run 3, dose range 1); 4.78 µM in test [2] (CXCR6, dose range 1); 4.9 µM in test [2] (setting [6]). Also, the IC50 was 5.1 µM in test [2] (CXCR6, run 1, dose range 2); 5.14 µM in test [2] (CXCR6, run 2, dose range 1); 4.58 µM in test [2] (CXCR6, run 2, dose range 2); 3.16 µM in test [3] (CCR6, dose range 1); 3.63 µM in test [3] (setting [7]); 4.09 µM in test [3] (CCR6, run 2, dose range 1). The IC50 is > 80 µM (inactive) in test [4] (dose range 1) and greater than 80 µM in test [4] (setting [5]).

`Cc1ccc(OCCn2c(NC(=O)c3ccco3)nc3ccccc32)cc1`: the IC50 in test [1] (dose range 1) is 11.3 µM; in test [1] (setting [5]), 10.3 µM; in test [1] (run 2, dose range 1), 8.87 µM; in test [1] (run 3, dose range 1), 10.8 µM; in test [2] (CXCR6, dose range 1), 6.41 µM; in test [2] (setting [6]), 6.79 µM. For the same compound, the IC50 in test [2] (CXCR6, run 2, dose range 1) was 7.16 µM; in test [3] (CCR6, dose range 1), 4.28 µM; in test [3] (setting [7]), 3.98 µM; in test [3] (CCR6, run 2, dose range 1), 3.68 µM; in test [4] (dose range 1), 32.8 µM; in test [4] (setting [5]), 32.8 µM. Further, the inhibition in test [2] amounted to 146%.

Turning to `CCS(=O)(=O)c1ncc(Cl)c(C(=O)Nc2ccc(S(=O)(=O)N3CCCC(C)C3)cc2)n1` (stereo not given), the IC50 is 9.3 µM in test [1] (dose range 1); 8.75 µM in test [1] (setting [5]); 8.93 µM in test [1] (run 2, dose range 1); 8.02 µM in test [1] (run 3, dose range 1); 9.52 µM in test [2] (CXCR6, dose range 1); 9.06 µM in test [2] (setting [6]). The IC50 is 7.57 µM in test [2] (CXCR6, run 1, dose range 2); 10.3 µM in test [2] (CXCR6, run 2, dose range 1); 8.84 µM in test [2] (CXCR6, run 2, dose range 2); 6.92 µM in test [3] (CCR6, dose range 1); 7.16 µM in test [3] (setting [7]); 7.39 µM in test [3] (CCR6, run 2, dose range 1). Further, the IC50 is > 80 µM (inactive) in test [4] (dose range 1) and greater than 80 µM in test [4] (setting [5]).
